# doi:10.1101/2021.09.30.462449v1 (biorxiv, 2021)
# Tests used:
# Experiment in all cases: biochemical
# Conditions in all cases: read-out: % inhibition mean (Z'Lyte)
# ABL1 T315I = ABL1 T315I (Homo sapiens, UniProt P00519, T315I)
# AMPK (A2/B2/G3) = AMPK (A2/B2/G3) (Homo sapiens, UniProt P54646)
# AURKB (Aurora B) = AURKB (Aurora B) (Homo sapiens, UniProt Q96GD4)
# CDC42 BPB (MRCKB) = CDC42 BPB (MRCKB) (Homo sapiens, UniProt Q9Y5S2)
# CDK1/cyclin B = CDK1/cyclin B (Homo sapiens, UniProt P06493)
# CHEK1 (CHK1) = CHEK1 (CHK1) (Homo sapiens, UniProt O14757)
# CSF1R (FMS) = CSF1R (FMS) (Homo sapiens, UniProt P07333)
# CSF1R (FMS), sequence (P07333 whole entry): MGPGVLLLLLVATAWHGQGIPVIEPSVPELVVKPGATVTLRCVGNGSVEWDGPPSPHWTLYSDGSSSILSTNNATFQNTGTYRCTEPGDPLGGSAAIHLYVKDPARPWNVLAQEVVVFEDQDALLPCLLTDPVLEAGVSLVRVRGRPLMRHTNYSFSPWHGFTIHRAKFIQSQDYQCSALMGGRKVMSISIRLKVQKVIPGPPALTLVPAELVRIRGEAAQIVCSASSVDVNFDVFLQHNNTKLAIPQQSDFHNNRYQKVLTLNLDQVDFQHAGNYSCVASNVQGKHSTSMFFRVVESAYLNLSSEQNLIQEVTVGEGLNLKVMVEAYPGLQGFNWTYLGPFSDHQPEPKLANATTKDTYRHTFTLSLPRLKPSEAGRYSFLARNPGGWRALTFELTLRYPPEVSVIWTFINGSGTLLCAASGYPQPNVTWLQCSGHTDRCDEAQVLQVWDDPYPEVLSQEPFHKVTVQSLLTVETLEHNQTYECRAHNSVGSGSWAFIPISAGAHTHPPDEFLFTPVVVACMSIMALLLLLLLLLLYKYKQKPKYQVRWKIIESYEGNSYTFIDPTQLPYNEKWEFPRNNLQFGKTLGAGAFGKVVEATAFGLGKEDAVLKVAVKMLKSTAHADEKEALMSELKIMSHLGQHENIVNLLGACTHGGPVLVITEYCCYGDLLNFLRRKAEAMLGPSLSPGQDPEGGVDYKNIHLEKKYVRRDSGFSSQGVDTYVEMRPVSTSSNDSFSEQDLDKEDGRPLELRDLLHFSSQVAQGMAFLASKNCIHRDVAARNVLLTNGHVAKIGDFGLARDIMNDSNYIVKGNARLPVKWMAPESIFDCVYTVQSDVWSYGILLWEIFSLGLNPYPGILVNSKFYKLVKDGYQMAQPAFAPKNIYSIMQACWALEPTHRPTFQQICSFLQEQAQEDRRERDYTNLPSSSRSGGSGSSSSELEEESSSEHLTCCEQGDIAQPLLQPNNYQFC
# DYRK3 = DYRK3 (Homo sapiens, UniProt O43781)
# EPHA2 = EPHA2 (Homo sapiens, UniProt P29317)
# FGFR3 V555M = FGFR3 V555M (Homo sapiens, UniProt P22607, V555M)
# FGFR3 V555M, sequence (P22607 whole entry V555M): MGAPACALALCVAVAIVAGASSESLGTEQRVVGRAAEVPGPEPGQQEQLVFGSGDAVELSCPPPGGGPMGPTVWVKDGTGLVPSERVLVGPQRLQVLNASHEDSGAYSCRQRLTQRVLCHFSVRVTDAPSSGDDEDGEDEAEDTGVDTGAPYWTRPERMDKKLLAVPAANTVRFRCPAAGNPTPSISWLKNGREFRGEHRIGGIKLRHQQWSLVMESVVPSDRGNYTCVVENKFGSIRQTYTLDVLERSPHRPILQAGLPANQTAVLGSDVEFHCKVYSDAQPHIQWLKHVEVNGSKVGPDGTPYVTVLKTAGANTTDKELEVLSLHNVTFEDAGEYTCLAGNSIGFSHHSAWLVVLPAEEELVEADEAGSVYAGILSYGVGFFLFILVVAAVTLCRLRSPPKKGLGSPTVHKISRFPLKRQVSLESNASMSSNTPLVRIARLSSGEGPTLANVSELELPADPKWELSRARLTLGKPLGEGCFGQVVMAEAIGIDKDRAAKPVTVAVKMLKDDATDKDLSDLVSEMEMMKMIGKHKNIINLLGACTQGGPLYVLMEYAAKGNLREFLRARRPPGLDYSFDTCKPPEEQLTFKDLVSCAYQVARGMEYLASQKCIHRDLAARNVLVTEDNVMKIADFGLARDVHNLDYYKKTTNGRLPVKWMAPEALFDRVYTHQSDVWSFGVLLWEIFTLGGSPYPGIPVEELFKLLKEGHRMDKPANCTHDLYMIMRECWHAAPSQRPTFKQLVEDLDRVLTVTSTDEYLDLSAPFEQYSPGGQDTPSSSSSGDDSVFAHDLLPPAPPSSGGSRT
# FGFR4 = FGFR4 (Homo sapiens, UniProt P22455)
# FGR = FGR (Homo sapiens, UniProt P09769)
# FGR, sequence (P09769 whole entry): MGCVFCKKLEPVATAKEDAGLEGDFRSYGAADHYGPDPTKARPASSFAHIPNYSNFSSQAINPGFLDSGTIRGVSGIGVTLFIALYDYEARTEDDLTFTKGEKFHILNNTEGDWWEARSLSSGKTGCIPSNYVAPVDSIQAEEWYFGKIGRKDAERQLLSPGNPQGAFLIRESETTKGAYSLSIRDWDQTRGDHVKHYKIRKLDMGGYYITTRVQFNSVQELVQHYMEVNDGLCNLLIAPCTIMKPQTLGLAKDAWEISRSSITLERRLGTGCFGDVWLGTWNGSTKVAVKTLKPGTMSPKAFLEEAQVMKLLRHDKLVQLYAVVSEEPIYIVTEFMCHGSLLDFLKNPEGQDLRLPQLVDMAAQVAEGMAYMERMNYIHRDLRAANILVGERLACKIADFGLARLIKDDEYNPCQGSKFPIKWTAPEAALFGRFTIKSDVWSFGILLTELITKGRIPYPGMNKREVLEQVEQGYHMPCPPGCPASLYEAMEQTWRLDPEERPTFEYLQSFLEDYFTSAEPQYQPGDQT
# IKBKE (IKK epsilon) = IKBKE (IKK epsilon) (Homo sapiens, UniProt Q14164)
# MAP2K2 (MEK2) = MAP2K2 (MEK2) (Homo sapiens, UniProt P36507)
# MAP2K2 (MEK2), sequence (P36507 whole entry): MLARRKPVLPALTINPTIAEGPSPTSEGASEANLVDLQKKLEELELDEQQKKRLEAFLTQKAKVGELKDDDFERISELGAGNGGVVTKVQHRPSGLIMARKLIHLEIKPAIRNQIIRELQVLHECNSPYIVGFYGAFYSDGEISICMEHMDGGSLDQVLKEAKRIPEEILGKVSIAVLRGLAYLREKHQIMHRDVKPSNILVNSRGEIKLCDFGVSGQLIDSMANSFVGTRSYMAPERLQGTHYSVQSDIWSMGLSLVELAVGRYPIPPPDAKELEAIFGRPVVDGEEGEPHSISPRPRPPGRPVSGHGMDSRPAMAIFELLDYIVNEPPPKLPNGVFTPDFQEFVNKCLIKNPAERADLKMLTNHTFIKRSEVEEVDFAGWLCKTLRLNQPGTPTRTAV
# MET (cMet) = MET (cMet) (Homo sapiens, UniProt P08581)
# MYLK2 (skMLCK) = MYLK2 (skMLCK) (Homo sapiens, UniProt Q9H1R3)
# MYLK2 (skMLCK), sequence (Q9H1R3 whole entry): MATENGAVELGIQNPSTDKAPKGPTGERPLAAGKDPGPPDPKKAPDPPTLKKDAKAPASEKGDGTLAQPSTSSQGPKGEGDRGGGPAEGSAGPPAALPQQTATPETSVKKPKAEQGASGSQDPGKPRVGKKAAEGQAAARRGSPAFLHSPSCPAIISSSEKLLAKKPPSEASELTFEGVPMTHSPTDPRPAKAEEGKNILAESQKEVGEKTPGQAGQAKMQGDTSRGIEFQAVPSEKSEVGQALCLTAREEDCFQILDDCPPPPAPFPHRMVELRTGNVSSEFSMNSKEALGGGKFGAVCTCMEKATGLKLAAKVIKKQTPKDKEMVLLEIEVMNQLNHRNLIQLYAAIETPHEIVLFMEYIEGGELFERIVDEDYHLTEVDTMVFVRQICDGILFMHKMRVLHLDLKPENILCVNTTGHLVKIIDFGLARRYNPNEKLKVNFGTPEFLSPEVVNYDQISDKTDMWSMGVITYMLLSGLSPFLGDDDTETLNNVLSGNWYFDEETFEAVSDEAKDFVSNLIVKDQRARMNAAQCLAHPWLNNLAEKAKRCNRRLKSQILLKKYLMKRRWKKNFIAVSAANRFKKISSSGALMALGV
# NEK6 = NEK6 (Homo sapiens, UniProt Q9HC98)
# PAK1 = PAK1 (Homo sapiens, UniProt Q13153)
# PAK3 = PAK3 (Homo sapiens, UniProt O75914)
# PDGFRA (PDGFR alpha) = PDGFRA (PDGFR alpha) (Homo sapiens, UniProt P16234)
# PDGFRA (PDGFR alpha), sequence (P16234 whole entry): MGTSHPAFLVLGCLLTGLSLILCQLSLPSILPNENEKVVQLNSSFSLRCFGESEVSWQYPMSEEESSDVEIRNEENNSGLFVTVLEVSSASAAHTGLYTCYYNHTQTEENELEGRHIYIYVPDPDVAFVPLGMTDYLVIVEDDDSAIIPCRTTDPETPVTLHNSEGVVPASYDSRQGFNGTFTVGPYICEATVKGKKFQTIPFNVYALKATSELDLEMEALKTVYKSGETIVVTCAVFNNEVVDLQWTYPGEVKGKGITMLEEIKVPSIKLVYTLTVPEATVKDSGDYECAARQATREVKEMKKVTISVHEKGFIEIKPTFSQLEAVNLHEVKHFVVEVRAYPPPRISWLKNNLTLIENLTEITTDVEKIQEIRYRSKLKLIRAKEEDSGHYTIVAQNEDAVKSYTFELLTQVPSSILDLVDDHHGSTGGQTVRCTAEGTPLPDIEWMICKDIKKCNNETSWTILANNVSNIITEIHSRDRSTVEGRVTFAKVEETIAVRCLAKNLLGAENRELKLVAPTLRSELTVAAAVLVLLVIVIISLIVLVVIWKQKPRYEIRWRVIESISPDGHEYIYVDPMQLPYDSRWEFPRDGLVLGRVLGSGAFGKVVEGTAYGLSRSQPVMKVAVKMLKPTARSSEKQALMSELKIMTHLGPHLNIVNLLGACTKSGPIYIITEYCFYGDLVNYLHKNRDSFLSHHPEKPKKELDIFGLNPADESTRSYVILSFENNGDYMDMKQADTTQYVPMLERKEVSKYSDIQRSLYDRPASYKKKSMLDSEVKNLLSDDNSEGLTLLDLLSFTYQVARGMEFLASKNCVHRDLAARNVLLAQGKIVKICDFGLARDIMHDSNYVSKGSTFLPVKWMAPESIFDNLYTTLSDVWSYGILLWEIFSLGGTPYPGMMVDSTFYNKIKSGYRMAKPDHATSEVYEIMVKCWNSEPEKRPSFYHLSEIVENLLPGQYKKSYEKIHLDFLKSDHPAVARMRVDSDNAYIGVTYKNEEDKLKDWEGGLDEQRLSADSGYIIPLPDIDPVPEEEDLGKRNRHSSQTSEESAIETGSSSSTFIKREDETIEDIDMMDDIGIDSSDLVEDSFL
# PDGFRA V561D = PDGFRA V561D (Homo sapiens, UniProt P16234, V561D)
# PDGFRA V561D, sequence (P16234 whole entry V561D): as the sequence (P16234 whole entry) above, with V561D counted along it
# PKN1 (PRK1) = PKN1 (PRK1) (Homo sapiens, UniProt Q16512)
# PLK2 = PLK2 (Homo sapiens, UniProt Q9NYY3)
# PLK3 = PLK3 (Homo sapiens, UniProt Q9H4B4)
# PTK6 (Brk) = PTK6 (Brk) (Homo sapiens, UniProt Q13882)
# SBK1 = SBK1 (Homo sapiens, UniProt Q52WX2)
# SBK1, sequence (Q52WX2 whole entry): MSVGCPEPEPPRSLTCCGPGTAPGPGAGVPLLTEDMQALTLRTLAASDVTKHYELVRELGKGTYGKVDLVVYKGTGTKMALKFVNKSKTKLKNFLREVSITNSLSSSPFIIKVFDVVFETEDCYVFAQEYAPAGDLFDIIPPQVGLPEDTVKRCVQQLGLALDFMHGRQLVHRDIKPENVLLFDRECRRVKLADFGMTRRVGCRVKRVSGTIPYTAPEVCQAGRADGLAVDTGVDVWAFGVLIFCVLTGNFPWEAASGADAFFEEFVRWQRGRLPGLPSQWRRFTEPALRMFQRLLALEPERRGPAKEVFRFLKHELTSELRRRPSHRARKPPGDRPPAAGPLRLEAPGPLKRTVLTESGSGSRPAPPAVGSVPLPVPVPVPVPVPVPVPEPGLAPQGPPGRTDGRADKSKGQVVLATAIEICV
# SGK2 = SGK2 (Homo sapiens, UniProt Q9HBY8)
# TBK1 = TBK1 (Homo sapiens, UniProt Q9UHD2)
# TYRO3 (RSE) = TYRO3 (RSE) (Homo sapiens, UniProt Q06418)
smiles,measurement,setting,value
"COc1ccc2nc3cc(Cl)ccc3c(Nc3cc(CN4CCCC4)c(O)c(CN4CCCC4)c3)c2n1 [Pyronaridine, 4-[(7-Chloro-2-methoxybenzo[b][1,5]naphthyridin-10-yl)amino]-2,6-bis(1-pyrrolidinylmethyl)phenol phosphate (1:4)]",inhibition at 1 µM,ABL1 T315I,11%
same,inhibition at 1 µM,AMPK (A2/B2/G3),2%
same,inhibition at 1 µM,AURKB (Aurora B),5%
same,inhibition at 1 µM,CDC42 BPB (MRCKB),-3%
same,inhibition at 1 µM,CDK1/cyclin B,5%
same,inhibition at 1 µM,CHEK1 (CHK1),8%
same,inhibition at 1 µM,CSF1R (FMS),-3%
same,inhibition at 1 µM,DYRK3,1%
same,inhibition at 1 µM,EPHA2,5%
same,inhibition at 1 µM,FGFR3 V555M,-1%
same,inhibition at 1 µM,FGFR4,-14%
same,inhibition at 1 µM,FGR,11%
same,inhibition at 1 µM,IKBKE (IKK epsilon),2%
same,inhibition at 1 µM,MAP2K2 (MEK2),2%
same,inhibition at 1 µM,MET (cMet),-1%
same,inhibition at 1 µM,MYLK2 (skMLCK),7%
same,inhibition at 1 µM,NEK6,-3%
same,inhibition at 1 µM,PAK1,6%
same,inhibition at 1 µM,PAK3,-7%
same,inhibition at 1 µM,PDGFRA (PDGFR alpha),2%
same,inhibition at 1 µM,PDGFRA V561D,2%
same,inhibition at 1 µM,PKN1 (PRK1),1%
same,inhibition at 1 µM,PLK2,5%
same,inhibition at 1 µM,PLK3,28%
same,inhibition at 1 µM,PTK6 (Brk),-4%
same,inhibition at 1 µM,SBK1,6%
same,inhibition at 1 µM,SGK2,3%
same,inhibition at 1 µM,TBK1,4%
same,inhibition at 1 µM,TYRO3 (RSE),-5%
